Measurements: patent publication US20220016101A1 (ACADIA Pharmaceuticals Inc., priority 2018, published 2022)
pKi: −log10 of the molar value.

How the values were obtained:
[1] = tested on: adults with Parkinson's disease and depression; test: HAMD-17 total score, open-label study in Parkinson's disease and depression; format: in vivo, human; settings: Week 8; interim, first 31 patients
Experimental: (§1) Subjects can receive treatment as either monotherapy or adjunctively if inadequately controlled with SSRI/SNRI monotherapy. A primary endpoint of the study is change from baseline to Week 8 in the Hamilton Depression Scale 17-item (HAMD-17) total score. Secondary endpoints include Clinical Global Impression (CGI) scales (improvement and severity), Scale of Outcomes in PD-Sleep (SCOPA), and quality of life as measured by EuroQol-5 dimensions-5 levels (EQ-5D-5L).
Subjects were assessed for eligibility and prohibited medications were discontinued. After all screening assessments were completed, eligible subjects returned to the clinic for Baseline evaluation. After Baseline assessments were completed, subjects were enrolled and received the first dose of pimavanserin. Study medication were provided to the subjects to take home with instructions to take the medication approximately the same time each day, and return all used containers and unused study drug as scheduled.
(§2) At approximately 2, 4, and 6 weeks after start of dosing of study drug subjects returned to the clinic for assessments. Safety measures, HAMD-17, C-SSRS (Columbia Suicide Severity Rating Scale), CGI-S(Clinical Global Impression-Severity), and CGI-I (Clinical Global Impression-Improvement) were evaluated at all visits. […]
The HAMD-17 total score was analyzed using mixed model for repeated measures (MMRM). […]

[2] = target: norepinephrine transporter (Homo sapiens, UniProt P23975); test: Receptor profile: affinity (Ki) at NET; format: binding; settings: data on file
[3] = tested on: patients with MDD and an inadequate response to an SSRI or SNRI; test: HAMD-17 melancholic symptom subscale score (HAMD-6), MDD study; format: in vivo, human; settings: for HAMD-17 Melancholic Symptom Subscale Score Change from Baseline to Week 5 Mean (SE) / HAMD-17 Melancholic Symptom Subscale Score Change from Baseline to Week 5 Median: 34 mg QD + SSRI/SNRI
From the text: “Hamilton Depression Scale 6-item (HAMD-6)” is a subscale derived from the 17-item Hamilton Rating Scale for Depression (HAMD-17). HAMD-6 includes the following items: depressed mood, guilt feelings, work and interests, psychomotor retardation, psychic anxiety, and general somatic symptoms (Bech et al. Acta Psychiatr Scand. 1975, 51(3):161-70).
All patients continued on their SSRI or SNRI at a stable dose for the duration of the study.
A higher HAMD-17 melancholic symptom subscale score indicates more severe depression […]. The abbreviations are: CI=confidence interval; LSM=least squares mean; MMRM=mixed-effects model for repeated measures; OC=observed cases; SD=standard deviation; SE=standard error. In Stage 1, Baseline=Study Week 0, Weeks 1-5=Study Weeks 1-5; and in Stage 2, Baseline=Study Week 5, Weeks 1-5=Study Weeks 6-10. LSM is from the stage-specific MMRM analysis with the change from baseline as the outcome; treatment group, visit, treatment-by-visit interaction, baseline melancholic symptom subscale score, and baseline melancholic symptom subscale score-by-visit interaction as the factors. An unstructured covariance matrix is used to model the within-subject errors. The denominator degrees of freedom are estimated using the Kenward-Roger approximation. 2-Sided p-value is for treatment difference from the stage-specific MMRM analysis.

dopamine transporter = dopamine transporter (Homo sapiens, UniProt Q01959); test: Receptor profile: affinity (Ki) at DAT; format: binding; settings: data on file
[4] = tested on: adults with Parkinson's disease and depression; test: CGI-I, open-label study in Parkinson's disease and depression; format: in vivo, human; settings: interim, first 31 patients
From the text: “Clinical Global Impression (CGI)” scale is a clinician-rated, 7-point scale that is designed to rate the severity of the subject's depression at the time of assessment using the Investigator's judgment and past experience with subjects who have the same disorder (i.e., depression with anxious distress). “Clinical Global Impression-Improvement (CGI-I)” is a clinician-rated, 7-point scale that is designed to rate the improvement in the subject's depression at the time of assessment, relative to the symptoms at Baseline. “Clinical Global Impression—Severity (CGI-S)” is an assessment of the current severity of the patient's disease.
as §1, with “A primary endpoint of the study is change from baseline to Week 8 in the Hamilton Depression Scale 17-item (HAMD-17) total score.” left out
as §2

Chain of dopamine transporter (Q01959 whole entry): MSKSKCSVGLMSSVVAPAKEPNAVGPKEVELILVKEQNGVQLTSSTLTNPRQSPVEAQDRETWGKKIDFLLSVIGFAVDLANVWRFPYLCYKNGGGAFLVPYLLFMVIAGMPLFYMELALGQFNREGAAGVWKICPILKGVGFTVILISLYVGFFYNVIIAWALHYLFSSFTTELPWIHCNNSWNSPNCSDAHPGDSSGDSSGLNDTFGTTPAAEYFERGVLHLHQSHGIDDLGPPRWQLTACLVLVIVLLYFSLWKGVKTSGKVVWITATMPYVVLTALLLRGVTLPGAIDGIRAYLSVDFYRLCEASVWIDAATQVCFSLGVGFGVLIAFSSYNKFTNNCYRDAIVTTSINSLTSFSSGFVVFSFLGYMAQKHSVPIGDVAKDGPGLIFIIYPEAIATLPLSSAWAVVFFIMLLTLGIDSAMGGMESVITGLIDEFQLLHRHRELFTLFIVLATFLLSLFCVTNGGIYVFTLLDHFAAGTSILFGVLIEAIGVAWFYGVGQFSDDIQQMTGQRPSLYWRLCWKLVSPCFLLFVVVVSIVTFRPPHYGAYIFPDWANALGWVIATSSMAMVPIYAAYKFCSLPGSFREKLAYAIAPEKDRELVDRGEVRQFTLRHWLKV
Chain of norepinephrine transporter (P23975 whole entry, species assumed): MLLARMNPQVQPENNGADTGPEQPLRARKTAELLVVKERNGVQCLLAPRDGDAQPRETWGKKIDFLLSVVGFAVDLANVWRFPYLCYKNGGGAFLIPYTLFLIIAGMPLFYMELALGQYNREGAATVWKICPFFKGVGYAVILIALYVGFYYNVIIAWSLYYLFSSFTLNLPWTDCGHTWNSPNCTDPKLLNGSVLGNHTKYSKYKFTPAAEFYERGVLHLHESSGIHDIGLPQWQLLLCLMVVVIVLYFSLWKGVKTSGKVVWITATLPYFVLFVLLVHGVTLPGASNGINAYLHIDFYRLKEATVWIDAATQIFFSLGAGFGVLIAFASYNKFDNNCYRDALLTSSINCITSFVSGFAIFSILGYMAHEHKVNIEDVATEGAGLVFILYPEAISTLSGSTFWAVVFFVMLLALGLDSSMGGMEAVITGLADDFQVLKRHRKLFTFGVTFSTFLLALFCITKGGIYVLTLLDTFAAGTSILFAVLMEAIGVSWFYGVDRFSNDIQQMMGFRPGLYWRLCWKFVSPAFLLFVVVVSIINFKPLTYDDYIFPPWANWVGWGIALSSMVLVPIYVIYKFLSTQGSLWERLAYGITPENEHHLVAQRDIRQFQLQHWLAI

Question: `CC(C)COc1ccc(CNC(=O)N(Cc2ccc(F)cc2)C2CCN(C)CC2)cc1` [pimavanserin, N-(4-Fluorophenylmethyl)-N-(1-methylpiperidin-4-yl)-N′-(4-(2-methylpropyloxy)phenylmethyl)carbamide] was tested. Which “patients reaching remission (HAMD-17≤7)” value [1] did it give?
Answer: 35.5%

Question: What about the “patients with ≥50% improvement in the HAMD-17” value [1] of the same compound?
Answer: 45.2%

Question: What about the pKi [2] of the same compound?
Answer: < 6.00

Question: And the “HAMD-17 Melancholic Symptom Subscale Score Effect Size (Cohen's d)” value ([3]; Stage 1)?
Answer: 0.558

Question: And the “HAMD-17 Melancholic Symptom Subscale Score Change from Baseline to Week 5 Mean (SE)” value ([3]; Stage 1)?
Answer: −6.8 (0.62)

Question: What about the “HAMD-17 Melancholic Symptom Subscale Score Change from Baseline to Week 5 Median” value ([3]; Stage 1) of the same compound?
Answer: −8.0

Question: And the “HAMD-17 Melancholic Symptom Subscale Score Effect Size (Cohen's d)” value ([3]; Stage 2)?
Answer: −0.304

Question: And the “HAMD-17 Melancholic Symptom Subscale Score Change from Baseline to Week 5 Mean (SE)” value ([3]; Stage 2)?
Answer: −1.0 (0.46)

Question: What about the “HAMD-17 Melancholic Symptom Subscale Score Change from Baseline to Week 5 Median” value ([3]; Stage 2) of the same compound?
Answer: −1.0

Question: What about the pKi (dopamine transporter) of the same compound?
Answer: < 6.00

Question: What about the “patients with a CGI-I score of 1 or 2 (very much improved or much improved)” value [4] of the same compound?
Answer: 54.8%
